# Test system: LG0703-F948-PDC complex spheroid viability
# Assay: Anticancer human tumor LG0703-F948-PDC patient-derived lung adenocarcinoma cell line growth inhibition [RAS]
# Conditions: for IC50: curve of first compound; for viability, T/C: stronger effect = lower value
# Outline: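 Multi-cell-type spheroids: tumor cells plus HUVEC endothelial cells and mesenchymal stem cells. RAS-pathway inhibitors were combined with targeted agents, each dosed in half-log steps down from clinical Cmax, or from 10 microM when Cmax was unknown.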
# [1] = second compound 0.00316 µM, first compound 0.0316 µM
# [2] = second compound 0.00316 µM, first compound 0.1 µM
# [3] = second compound 0.00316 µM, first compound 0.316 µM
# [4] = second compound 0.00316 µM, first compound 1 µM
# [5] = second compound 0.01 µM, first compound 0.0316 µM
# [6] = second compound 0.01 µM, first compound 0.1 µM
# [7] = second compound 0.01 µM, first compound 0.316 µM
# [8] = second compound 0.01 µM, first compound 1 µM
# [9] = second compound 0.0316 µM, first compound 0.0316 µM
# [10] = second compound 0.0316 µM, first compound 0.1 µM
# [11] = second compound 0.0316 µM, first compound 0.316 µM
# [12] = second compound 0.0316 µM, first compound 1 µM
# [13] = second compound 0.1 µM, first compound 0.0316 µM
# [14] = second compound 0.1 µM, first compound 0.1 µM
# [15] = second compound 0.1 µM, first compound 0.316 µM
# [16] = second compound 0.1 µM, first compound 1 µM
# [17] = second compound 0.316 µM, first compound 0.0316 µM
# [18] = second compound 0.316 µM, first compound 0.1 µM
# [19] = second compound 0.316 µM, first compound 0.316 µM
# [20] = second compound 0.316 µM, first compound 1 µM
# [21] = second compound 1 µM, first compound 0.0316 µM
# [22] = second compound 1 µM, first compound 0.1 µM
# [23] = second compound 1 µM, first compound 0.316 µM
# [24] = second compound 1 µM, first compound 1 µM
# 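Also: spheroids exposed to agents for 7 days.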
# 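For viability, T/C in this document: 100% = DMSO vehicle wells.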
structure (smiles),measurement,setting,value
CCN1CCN(Cc2ccc(Nc3ncc(F)c(-c4cc(F)c5nc(C)n(C(C)C)c5c4)n3)nc2)CC1 + C=CC(=O)N1CCN(c2nc(OCC3CCCN3C)nc3c(F)c(-c4nc(N)cc(C)c4C(F)(F)F)c(Cl)cc23)C(C)C1,IC50,second compound 0.00316 µM,> 1000 nM
same,IC50,second compound 0.01 µM,> 1000 nM
same,IC50,second compound 0.0316 µM,> 1000 nM
same,IC50,second compound 0.1 µM,> 1000 nM
same,IC50,second compound 0.316 µM,> 1000 nM
same,IC50,second compound 1 µM,> 1000 nM
same,"viability, T/C","second compound 0.00316 µM, first compound 0.00316 µM",106%
same,"viability, T/C","second compound 0.00316 µM, first compound 0.01 µM",92.5%
same,"viability, T/C",[1],85.5%
same,"viability, T/C",[2],74.7%
same,"viability, T/C",[3],85.3%
same,"viability, T/C",[4],66.9%
same,"viability, T/C","second compound 0.01 µM, first compound 0.00316 µM",110%
same,"viability, T/C","second compound 0.01 µM, first compound 0.01 µM",98.8%
same,"viability, T/C",[5],89.8%
same,"viability, T/C",[6],86.5%
same,"viability, T/C",[7],81%
same,"viability, T/C",[8],71%
same,"viability, T/C","second compound 0.0316 µM, first compound 0.00316 µM",108%
same,"viability, T/C","second compound 0.0316 µM, first compound 0.01 µM",109%
same,"viability, T/C",[9],91.1%
same,"viability, T/C",[10],79.7%
same,"viability, T/C",[11],82.7%
same,"viability, T/C",[12],61.7%
same,"viability, T/C","second compound 0.1 µM, first compound 0.00316 µM",106%
same,"viability, T/C","second compound 0.1 µM, first compound 0.01 µM",98.9%
same,"viability, T/C",[13],92.5%
same,"viability, T/C",[14],78%
same,"viability, T/C",[15],84.3%
same,"viability, T/C",[16],68.9%
same,"viability, T/C","second compound 0.316 µM, first compound 0.00316 µM",106%
same,"viability, T/C","second compound 0.316 µM, first compound 0.01 µM",95.6%
same,"viability, T/C",[17],89.6%
same,"viability, T/C",[18],81.5%
same,"viability, T/C",[19],78.7%
same,"viability, T/C",[20],64.3%
same,"viability, T/C","second compound 1 µM, first compound 0.00316 µM",109%
same,"viability, T/C","second compound 1 µM, first compound 0.01 µM",109%
same,"viability, T/C",[21],108%
same,"viability, T/C",[22],81.2%
same,"viability, T/C",[23],87.4%
same,"viability, T/C",[24],65.3%
C=CC(=O)N1CCN(c2nc(OCC3CCCN3C)nc3c(F)c(-c4nc(N)cc(C)c4C(F)(F)F)c(Cl)cc23)C(C)C1 (stereo unspecified) + CCn1c(-c2cc(N3CCN(C)CC3)cnc2C(C)OC)c2c3cc(ccc31)-c1csc(n1)CC(NC(=O)C1CC1C)C(=O)N1CCCC(N1)C(=O)OCC(C)(C)C2,IC50,second compound 0.000949 µM,> 1000 nM
same,IC50,second compound 0.003 µM,< 3.16 nM
same,IC50,second compound 0.00949 µM,< 3.16 nM
same,IC50,second compound 0.03 µM,< 3.16 nM
same,IC50,second compound 0.0949 µM,< 3.16 nM
same,IC50,second compound 0.3 µM,< 3.16 nM
same,"viability, T/C","second compound 0.000949 µM, first compound 0.00316 µM",68%
same,"viability, T/C","second compound 0.000949 µM, first compound 0.01 µM",75.1%
same,"viability, T/C","second compound 0.000949 µM, first compound 0.0316 µM",71%
same,"viability, T/C","second compound 0.000949 µM, first compound 0.1 µM",66.5%
same,"viability, T/C","second compound 0.000949 µM, first compound 0.316 µM",69.9%
same,"viability, T/C","second compound 0.000949 µM, first compound 1 µM",62.6%
same,"viability, T/C","second compound 0.003 µM, first compound 0.00316 µM",45.5%
same,"viability, T/C","second compound 0.003 µM, first compound 0.01 µM",40.5%
same,"viability, T/C","second compound 0.003 µM, first compound 0.0316 µM",43.4%
same,"viability, T/C","second compound 0.003 µM, first compound 0.1 µM",44%
same,"viability, T/C","second compound 0.003 µM, first compound 0.316 µM",47.3%
same,"viability, T/C","second compound 0.003 µM, first compound 1 µM",49%
same,"viability, T/C","second compound 0.00949 µM, first compound 0.00316 µM",24.9%
same,"viability, T/C","second compound 0.00949 µM, first compound 0.01 µM",26.1%
same,"viability, T/C","second compound 0.00949 µM, first compound 0.0316 µM",27.9%
same,"viability, T/C","second compound 0.00949 µM, first compound 0.1 µM",17.7%
same,"viability, T/C","second compound 0.00949 µM, first compound 0.316 µM",25.9%
same,"viability, T/C","second compound 0.00949 µM, first compound 1 µM",25.5%
same,"viability, T/C","second compound 0.03 µM, first compound 0.00316 µM",13.4%
same,"viability, T/C","second compound 0.03 µM, first compound 0.01 µM",14.6%
same,"viability, T/C","second compound 0.03 µM, first compound 0.0316 µM",16.2%
same,"viability, T/C","second compound 0.03 µM, first compound 0.1 µM",13.1%
same,"viability, T/C","second compound 0.03 µM, first compound 0.316 µM",18.8%
same,"viability, T/C","second compound 0.03 µM, first compound 1 µM",13.9%
same,"viability, T/C","second compound 0.0949 µM, first compound 0.00316 µM",14.2%
same,"viability, T/C","second compound 0.0949 µM, first compound 0.01 µM",16.3%
same,"viability, T/C","second compound 0.0949 µM, first compound 0.0316 µM",11.3%
same,"viability, T/C","second compound 0.0949 µM, first compound 0.1 µM",11%
same,"viability, T/C","second compound 0.0949 µM, first compound 0.316 µM",15.2%
same,"viability, T/C","second compound 0.0949 µM, first compound 1 µM",15.9%
same,"viability, T/C","second compound 0.3 µM, first compound 0.00316 µM",10.4%
same,"viability, T/C","second compound 0.3 µM, first compound 0.01 µM",8.07%
same,"viability, T/C","second compound 0.3 µM, first compound 0.0316 µM",9.51%
same,"viability, T/C","second compound 0.3 µM, first compound 0.1 µM",11.9%
same,"viability, T/C","second compound 0.3 µM, first compound 0.316 µM",11.5%
same,"viability, T/C","second compound 0.3 µM, first compound 1 µM",10.8%
CC(Nc1ccc2c(c1)OCCn1cc(N3C(=O)OCC3C(F)F)nc1-2)C(N)=O (stereo unspecified) + C=CC(=O)N1CCN(c2nc(OCC3CCCN3C)nc3c(F)c(-c4nc(N)cc(C)c4C(F)(F)F)c(Cl)cc23)C(C)C1,IC50,second compound 0.00316 µM,1150 nM
same,IC50,second compound 0.01 µM,882 nM
same,IC50,second compound 0.0316 µM,987 nM
same,IC50,second compound 0.1 µM,967 nM
same,IC50,second compound 0.316 µM,962 nM
same,IC50,second compound 1 µM,1190 nM
same,"viability, T/C",[1],91.8%
same,"viability, T/C",[2],84.8%
same,"viability, T/C",[3],64.5%
same,"viability, T/C",[4],53.5%
same,"viability, T/C","second compound 0.00316 µM, first compound 3.16 µM",34.7%
same,"viability, T/C","second compound 0.00316 µM, first compound 10 µM",14.8%
same,"viability, T/C",[5],99.9%
same,"viability, T/C",[6],83.3%
same,"viability, T/C",[7],62.2%
same,"viability, T/C",[8],49.5%
same,"viability, T/C","second compound 0.01 µM, first compound 3.16 µM",32.9%
same,"viability, T/C","second compound 0.01 µM, first compound 10 µM",14.2%
same,"viability, T/C",[9],98.9%
same,"viability, T/C",[10],86.7%
same,"viability, T/C",[11],66.9%
same,"viability, T/C",[12],47.4%
same,"viability, T/C","second compound 0.0316 µM, first compound 3.16 µM",34.6%
same,"viability, T/C","second compound 0.0316 µM, first compound 10 µM",13.5%
same,"viability, T/C",[13],105%
same,"viability, T/C",[14],86.3%
same,"viability, T/C",[15],63.9%
same,"viability, T/C",[16],50.9%
same,"viability, T/C","second compound 0.1 µM, first compound 3.16 µM",35.2%
same,"viability, T/C","second compound 0.1 µM, first compound 10 µM",12.9%
same,"viability, T/C",[17],113%
same,"viability, T/C",[18],86.6%
same,"viability, T/C",[19],68%
same,"viability, T/C",[20],44.3%
same,"viability, T/C","second compound 0.316 µM, first compound 3.16 µM",34.4%
same,"viability, T/C","second compound 0.316 µM, first compound 10 µM",14.8%
same,"viability, T/C",[21],108%
same,"viability, T/C",[22],96.5%
same,"viability, T/C",[23],69.2%
same,"viability, T/C",[24],53.5%
same,"viability, T/C","second compound 1 µM, first compound 3.16 µM",36%
same,"viability, T/C","second compound 1 µM, first compound 10 µM",11.7%

# Source: PubChem BioAssay AID2060890 (Molecular Pharmacology Branch, DTP, NCI, 2025)
